This is an account of results in patent US9133183B2, “Imidazolidinones and analogs exhibiting anti-cancer and anti-proliferative activities” (Deciphera Pharmaceuticals, LLC, priority 2013, dated 2015).

Like-named read-outs stand apart in the source and are kept apart here.

In experiment [1] the target is unphosphorylated c-FMS kinase (uFMS, Seq. ID no. 1) (Homo sapiens (Human), UniProt P07333). The experiment can be described thus: uFMS kinase assay (ADP production coupled to pyruvate kinase/lactate dehydrogenase). Format: biochemical. Conditions: enzymatic assay, ATP 500 μM. The method in brief:
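Unphosphorylated FMS (10 nM) with polyE4Y 1 mg/mL and 500 μM ATP in 90 mM Tris pH 7.5, 10 mM MgCl2, 0.2% octyl-glucoside, 1% DMSO. ADP formation was coupled via pyruvate kinase/LDH to NADH oxidation, followed at A340 for 4 h at 30° C.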

Experiment [2] deals with unphosphorylated c-KIT kinase (uKIT, Seq. ID no. 2) (Homo sapiens (Human), UniProt P10721). The experiment can be described thus: uKit kinase assay (coupled pyruvate kinase/lactate dehydrogenase). Format: biochemical. The conditions noted are these: enzymatic assay, ATP 2000 μM. The method in brief: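 The read-out was a continuous PK/LDH-coupled decrease in NADH absorbance at 340 nm, monitored at 30 °C over 4 h. IC50 came from % inhibition based on rates at 3–4 h. The GST-tagged unphosphorylated KIT (12 nM) was used with polyE4Y substrate, 2000 μM ATP and 10 mM Mg2+ at pH 7.5, with serially diluted compound.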
Sequence of unphosphorylated c-KIT kinase (uKIT, Seq. ID no. 2) (P10721 other isoform, or with tags, fused parts or gaps): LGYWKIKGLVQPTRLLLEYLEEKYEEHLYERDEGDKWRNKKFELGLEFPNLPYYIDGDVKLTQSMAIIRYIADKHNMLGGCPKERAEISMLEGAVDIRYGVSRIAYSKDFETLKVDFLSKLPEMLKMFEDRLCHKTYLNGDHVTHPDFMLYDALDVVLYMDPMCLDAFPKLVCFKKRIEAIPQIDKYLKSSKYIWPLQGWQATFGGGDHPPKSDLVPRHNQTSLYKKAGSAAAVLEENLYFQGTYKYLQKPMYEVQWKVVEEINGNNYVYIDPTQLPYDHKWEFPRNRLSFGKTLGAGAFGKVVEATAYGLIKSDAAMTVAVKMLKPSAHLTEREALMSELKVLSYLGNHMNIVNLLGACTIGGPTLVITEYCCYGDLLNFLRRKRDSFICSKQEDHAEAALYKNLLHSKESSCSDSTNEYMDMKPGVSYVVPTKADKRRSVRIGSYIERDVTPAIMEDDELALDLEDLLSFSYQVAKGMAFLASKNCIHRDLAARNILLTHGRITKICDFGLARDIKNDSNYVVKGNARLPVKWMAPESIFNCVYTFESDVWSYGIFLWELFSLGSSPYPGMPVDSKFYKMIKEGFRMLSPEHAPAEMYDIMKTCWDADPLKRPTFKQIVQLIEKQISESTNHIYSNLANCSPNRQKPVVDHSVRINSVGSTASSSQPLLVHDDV

Experiment [3] addresses unphosphorylated PDGFRβ kinase (uPDGFRβ, Seq. ID No. 3) (Homo sapiens (Human), UniProt P09619). The experiment can be described thus: Unphosphorylated PDGFRβ kinase assay (coupled pyruvate kinase/lactate dehydrogenase). The experiment is classed as biochemical. The conditions noted are these: enzymatic assay, ATP 500 μM. The method in brief: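 Construct residues 557-1106, unphosphorylated, 15.7 nM, with poly E4Y 2.5 mg/mL and 500 μM ATP, Tris pH 7.5, 1% DMSO, 30 °C. ADP coupled to NADH oxidation via PK/LDH, A340 followed 4 h; rate from 1.5-2.5 h versus no-compound control, IC50 from percent-inhibition series.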

The test system of a further experiment is M-NFS-60 cells. As to the kind of experiment: M-NFS-60 cell proliferation assay (resazurin). The experiment is classed as cell-based. The conditions noted are these: 67 h incubation. The method in brief:
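Cells kept in medium containing 20 ng/mL mouse recombinant M-CSF. Fluorescence was read at ex 540/em 600 nm, and IC50 was fitted from percent inhibition across a range of inhibitor concentrations.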

Sequence of unphosphorylated PDGFRβ kinase (uPDGFRβ, Seq. ID No. 3) (P09619 557-1106): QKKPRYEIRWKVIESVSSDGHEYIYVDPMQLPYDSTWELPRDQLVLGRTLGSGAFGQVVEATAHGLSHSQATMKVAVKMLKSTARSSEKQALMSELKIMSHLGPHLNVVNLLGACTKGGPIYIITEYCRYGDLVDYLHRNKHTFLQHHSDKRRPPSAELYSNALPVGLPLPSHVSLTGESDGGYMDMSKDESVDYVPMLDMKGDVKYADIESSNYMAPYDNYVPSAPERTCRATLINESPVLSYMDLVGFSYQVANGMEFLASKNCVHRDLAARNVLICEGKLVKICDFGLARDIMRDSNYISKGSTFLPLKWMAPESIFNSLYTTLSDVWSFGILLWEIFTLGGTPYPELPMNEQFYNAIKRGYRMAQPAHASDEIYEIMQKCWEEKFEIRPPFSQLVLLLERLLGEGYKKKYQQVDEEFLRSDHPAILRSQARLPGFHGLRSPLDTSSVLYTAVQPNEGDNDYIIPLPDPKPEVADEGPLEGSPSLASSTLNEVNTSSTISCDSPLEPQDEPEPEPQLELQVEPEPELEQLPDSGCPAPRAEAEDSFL
Sequence of unphosphorylated c-FMS kinase (uFMS, Seq. ID no. 1) (P07333 538-972): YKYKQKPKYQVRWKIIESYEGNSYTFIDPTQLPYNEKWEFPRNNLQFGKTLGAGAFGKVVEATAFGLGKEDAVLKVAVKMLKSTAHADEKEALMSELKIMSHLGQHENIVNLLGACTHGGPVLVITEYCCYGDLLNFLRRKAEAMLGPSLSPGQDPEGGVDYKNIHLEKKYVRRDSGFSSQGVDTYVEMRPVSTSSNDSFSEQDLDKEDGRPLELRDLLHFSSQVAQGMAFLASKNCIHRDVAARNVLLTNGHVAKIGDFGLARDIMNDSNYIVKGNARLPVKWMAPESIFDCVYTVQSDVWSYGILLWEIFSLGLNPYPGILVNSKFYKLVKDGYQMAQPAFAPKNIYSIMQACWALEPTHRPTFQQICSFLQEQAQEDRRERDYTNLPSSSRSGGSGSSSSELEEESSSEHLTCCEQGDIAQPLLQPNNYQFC

`CCc1nc(NC(=O)N2CCN(CC(F)(F)F)C2=O)ccc1Oc1ccnc(-c2cnn(C)c2)c1` [Example 56, N-(6-ethyl-5-((2-(1-methyl-1H-pyrazol-4-yl)pyridin-4-yl)oxy)pyridin-2-yl)-2-oxo-3-(2,2,2-trifluoroethyl)imidazolidine-1-carboxamide]: the IC50 was 10 to 100 nM in experiment [1] (read-out: uFMS), > 1000 nM in experiment [2], > 1000 nM in experiment [3] and 10 to 100 nM in the experiment on M-NFS-60 cells.

With `Cc1ccc(-c2cc(Oc3ccc(NC(=O)N4CCN(C5CCOCC5)C4=O)nc3C)ccn2)cn1` [Example 54, N-(6-methyl-5-((6′-methyl-[2,3′-bipyridin]-4-yl)oxy)pyridin-2-yl)-2-oxo-3-(tetrahydro-2H-pyran-4-yl)imidazolidine-1-carboxamide], the IC50 lay in the range of 10 to 100 nM in experiment [1] (read-out: uFMS), 100 to 1000 nM in experiment [2], 100 to 1000 nM in experiment [3] and 10 to 100 nM in the experiment with M-NFS-60 cells.

On to `CC(C)N1CCN(C(=O)Nc2ccc(Oc3ccnc(-c4cnn(C)c4)c3)cn2)C1=O` [Example 36, 3-isopropyl-N-(5-((2-(1-methyl-1H-pyrazol-4-yl)pyridin-4-yl)oxy)pyridin-2-yl)-2-oxoimidazolidine-1-carboxamide], for which the IC50 in experiment [1] (read-out: uFMS) is < 10 nM; in experiment [2], 10 to 100 nM; in experiment [3] it was 100 to 1000 nM; in the experiment with M-NFS-60 cells it was < 10 nM.

Consider `Cc1nc(NC(=O)N2CCN(C)C2=O)ccc1Oc1ccnc(-c2cnn(C)c2)c1` [Example 41, 3-methyl-N-(6-methyl-5-((2-(1-methyl-1H-pyrazol-4-yl)pyridin-4-yl)oxy)pyridin-2-yl)-2-oxoimidazolidine-1-carboxamide], for which the IC50 in experiment [1] (uFMS) is 10 to 100 nM; in experiment [2], > 1000 nM; in experiment [3], > 1000 nM; in the experiment on M-NFS-60 cells, 100 to 1000 nM.

In the case of `Cc1cc(-c2cc(Oc3ccc(NC(=O)N4CCN(C5CCOCC5)C4=O)nc3)ccn2)on1` [Example 7, N-(5-((2-(3-methylisoxazol-5-yl)pyridin-4-yl)oxy)pyridin-2-yl)-2-oxo-3-(tetrahydro-2H-pyran-4-yl)imidazolidine-1-carboxamide], the IC50 in experiment [1] (read-out: uFMS) was 10 to 100 nM; in experiment [2], 10 to 100 nM; in experiment [3], > 1000 nM; in the experiment on M-NFS-60 cells, 10 to 100 nM.

`Cn1cc(-c2cc(Oc3ccc(NC(=O)N4CCN(C(C)(C)C)C4=O)nc3)ccn2)cn1` [Example 34, 3-(tert-butyl)-N-(5-((2-(1-methyl-1H-pyrazol-4-yl)pyridin-4-yl)oxy)pyridin-2-yl)-2-oxoimidazolidine-1-carboxamide]: the IC50 in experiment [1] (read-out: uFMS) is < 10 nM; in experiment [2], < 10 nM; in experiment [3], 10 to 100 nM; in the experiment on M-NFS-60 cells, 10 to 100 nM.

On to `Cc1nc(NC(=O)N2CCN(C3CCOCC3)C2=O)ccc1Oc1ccnc(-c2cnn(C)c2)c1` [Example 3, N-(6-methyl-5-((2-(1-methyl-1H-pyrazol-4-yl)pyridin-4-yl)oxy)pyridin-2-yl)-2-oxo-3-(tetrahydro-2H-pyran-4-yl)imidazolidine-1-carboxamide], for which the IC50 is < 10 nM in experiment [1] (read-out: uFMS), 100 to 1000 nM in experiment [2], > 1000 nM in experiment [3] and 10 to 100 nM in the experiment on M-NFS-60 cells.

Consider `CCc1nc(NC(=O)N2CCN(C3CC3)C2=O)ccc1Oc1ccnc(-c2cnn(C)c2)c1` [Example 58, 3-cyclopropyl-N-(6-ethyl-5-((2-(1-methyl-1H-pyrazol-4-yl)pyridin-4-yl)oxy)pyridin-2-yl)-2-oxoimidazolidine-1-carboxamide], for which the IC50 in experiment [1] (read-out: uFMS) is 10 to 100 nM; in experiment [2], > 1000 nM; in experiment [3], > 1000 nM; with M-NFS-60 cells it was 10 to 100 nM.

As to `Cn1cc(-c2cc(Oc3ccc(NC(=O)N4CCN(C5CCC(F)(F)CC5)C4=O)nc3)ccn2)cn1` [Example 25, 3-(4,4-difluorocyclohexyl)-N-(5-((2-(1-methyl-1H-pyrazol-4-yl)pyridin-4-yl)oxy)pyridin-2-yl)-2-oxoimidazolidine-1-carboxamide], the IC50 in experiment [1] (read-out: uFMS) is < 10 nM; in experiment [2], < 10 nM; in experiment [3], 10 to 100 nM; with M-NFS-60 cells, < 10 nM.

For the compound `COCCCN1CCN(C(=O)Nc2ccc(Oc3ccnc(-c4cnn(C)c4)c3)cn2)C1=O` [Example 11, 3-(3-methoxypropyl)-N-(5-((2-(1-methyl-1H-pyrazol-4-yl)pyridin-4-yl)oxy)pyridin-2-yl)-2-oxoimidazolidine-1-carboxamide], the IC50 in experiment [1] (read-out: uFMS) is 10 to 100 nM; in experiment [2] it was 10 to 100 nM; in experiment [3] it was > 1000 nM; in the experiment with M-NFS-60 cells, 10 to 100 nM.

Regarding `CCN1CCN(C(=O)Nc2cc(C)c(Oc3ccnc(-n4cnc(C)c4)c3)cn2)C1=O` [Example 88, 3-ethyl-N-(4-methyl-5-((2-(4-methyl-1H-imidazol-1-yl)pyridin-4-yl)oxy)pyridin-2-yl)-2-oxoimidazolidine-1-carboxamide], the IC50 in experiment [1] (read-out: uFMS) was 10 to 100 nM; in experiment [2] it was 100 to 1000 nM; in experiment [3] it was > 1000 nM; with M-NFS-60 cells, 10 to 100 nM.

On to `CCN1CCN(C(=O)Nc2ccc(Oc3ccnc(-c4ccc(C5CCN(C)CC5)cc4)c3)c(C)n2)C1=O` [Example 61, 3-ethyl-N-(6-methyl-5-((2-(4-(1-methylpiperidin-4-yl)phenyl)pyridin-4-yl)oxy)pyridin-2-yl)-2-oxoimidazolidine-1-carboxamide], for which the IC50 in experiment [1] (read-out: uFMS) was < 10 nM; in experiment [2], 100 to 1000 nM; in experiment [3], > 1000 nM; with M-NFS-60 cells it was < 10 nM.

As to `CCN1CCN(C(=O)Nc2ccc(Oc3ccnc(-c4ccnc(C)c4)c3)c(C)n2)C1=O` [Example 118, 3-ethyl-N-(6-methyl-5-((2′-methyl-[2,4′-bipyridin]-4-yl)oxy)pyridin-2-yl)-2-oxoimidazolidine-1-carboxamide], the IC50 in experiment [1] (read-out: uFMS) was 10 to 100 nM; in experiment [2] it was > 1000 nM; in experiment [3], > 1000 nM; in the experiment with M-NFS-60 cells, 10 to 100 nM.

For `COC[C@H](C)N1CCN(C(=O)Nc2ccc(Oc3ccnc(-c4cnn(C)c4)c3)cn2)C1=O` [Example 16, (S)-3-(1-methoxypropan-2-yl)-N-(5-((2-(1-methyl-11H-pyrazol-4-yl)pyridin-4-yl)oxy)pyridin-2-yl)-2-oxoimidazolidine-1-carboxamide], the IC50 was < 10 nM in experiment [1] (read-out: uFMS), < 10 nM in experiment [2], 100 to 1000 nM in experiment [3] and 10 to 100 nM with M-NFS-60 cells.

Take `Cc1cc(NC(=O)N2CCN(C)C2=O)ncc1Oc1ccnc(-c2cnn(C)c2)c1` [Example 85, 3-methyl-N-(4-methyl-5-((2-(1-methyl-1H-pyrazol-4-yl)pyridin-4-yl)oxy)pyridin-2-yl)-2-oxoimidazolidine-1-carboxamide]: the IC50 in experiment [1] (read-out: uFMS) was < 10 nM; in experiment [2], 10 to 100 nM; in experiment [3] it was > 1000 nM; in the experiment on M-NFS-60 cells it was 10 to 100 nM.

In the case of `CN(C)C(=O)Nc1cc(Oc2ccc(NC(=O)N3CCN(C4CCOCC4)C3=O)nc2)ccn1` [Example 120, N-(5-((2-(3,3-dimethylureido)pyridin-4-yl)oxy)pyridin-2-yl)-2-oxo-3-(tetrahydro-2H-pyran-4-yl)imidazolidine-1-carboxamide], the IC50 is < 10 nM in experiment [1] (read-out: uFMS), 10 to 100 nM in experiment [2], 10 to 100 nM in experiment [3] and 10 to 100 nM in the experiment on M-NFS-60 cells.

Consider `CCn1cc(-c2cc(Oc3ccc(NC(=O)N4CCN(C5CCOCC5)C4=O)nc3)ccn2)cn1` [Example 4, N-(5-((2-(1-ethyl-1H-pyrazol-4-yl)pyridin-4-yl)oxy)pyridin-2-yl)-2-oxo-3-(tetrahydro-2H-pyran-4-yl)imidazolidine-1-carboxamide], for which the IC50 in experiment [1] (read-out: uFMS) was 10 to 100 nM; in experiment [2] it was 10 to 100 nM; in experiment [3], 100 to 1000 nM; in the experiment on M-NFS-60 cells it was 10 to 100 nM.

Take `Cc1nc(NC(=O)N2CCN(CC(F)(F)F)C2=O)ccc1Oc1ccnc(-c2cnn(C)c2)c1` [Example 43, N-(6-methyl-5-((2-(1-methyl-1H-pyrazol-4-yl)pyridin-4-yl)oxy)pyridin-2-yl)-2-oxo-3-(2,2,2-trifluoroethyl)imidazolidine-1-carboxamide]: the IC50 in experiment [1] (read-out: uFMS) was < 10 nM; in experiment [2], 100 to 1000 nM; in experiment [3] it was > 1000 nM; with M-NFS-60 cells, < 10 nM.

Turning to `[2H]C([2H])([2H])n1cc(-c2cc(Oc3ccc(NC(=O)N4CCN(CCOC)C4=O)nc3C)ccn2)cn1` [Example 39, 3-(2-methoxyethyl)-N-(6-methyl-5-((2-(1-(trideuteromethyl)-1H-pyrazol-4-yl)pyridin-4-yl)oxy)pyridin-2-yl)-2-oxoimidazolidine-1-carboxamide], the IC50 in experiment [1] (read-out: uFMS) was 10 to 100 nM; in experiment [2] it was 100 to 1000 nM; in experiment [3], > 1000 nM; in the experiment with M-NFS-60 cells, 100 to 1000 nM.

For `Cc1nc(NC(=O)N2CCN(C3COC3)C2=O)ccc1Oc1ccnc(-c2cnn(C)c2)c1` [Example 20, N-(6-methyl-5-((2-(1-methyl-1H-pyrazol-4-yl)pyridin-4-yl)oxy)pyridin-2-yl)-3-(oxetan-3-yl)-2-oxoimidazolidine-1-carboxamide], the IC50 in experiment [1] (read-out: uFMS) is 10 to 100 nM; in experiment [2], 100 to 1000 nM; in experiment [3], > 1000 nM; in the experiment with M-NFS-60 cells, 10 to 100 nM.
